Assays:
[1] = PAMPA assay, blood-brain barrier (BBB) membrane
Experimental: (§1) After being first dissolved in DMSO, the compounds were diluted 1:1 v/v using phosphate buffer (PBS 10 mM, pH 7.4). […] The gastrointestinal (GI) and blood–brain barrier (BBB) phospholipidic bilayers were mimicked by covering each well of the filter plate with either a 10%w/v CHCl3/dodecane brain polar lipid solution or a 1%w/v L-α-phosphatidylcholine solution (PC) in dodecane. After placing a DMSO/PBS 1:1v/v combination solution in the acceptor plate, the sandwich was gently shaken and incubated at room temperature for four hours. Samples were collected from the upper and bottom plates at the end time point, and the LC-UV/MS method was used for analysis. As previously reported, the apparent permeability (Papp cm/s × 10^−6) was quantified.

[2] = PAMPA assay, gastrointestinal (GI) membrane; format: in vitro ADME; conditions: four hours
Experimental: as §1

[3] = tested on: orthotopic GBM model; parameters: method as in PMID 28650650; conditions: compared with SI306; cited from earlier work

Apparent permeability Papp ([1]; BBB PAMPA, room temperature, four hours) [cm/s × 10^−6] | Membrane retention MR ([1]; PAMPA, 4 h, pH 7.4) [%] | Papp at 4 h ([2]; pH 7.4, room temperature, read-out: Apparent permeability Papp) [×10⁻⁶ cm/s] | Membrane retention MR ([2]; room temperature) [%] | Compound | Efficacy in orthotopic GBM model [3]
17.16 ± 0.31 | 10.73 ± 1.33 | 19.2 ± 0.37 | 8.89 ± 1.12 | CC(C)NCC(O)COc1cccc2ccccc12 (centres unmarked) [Propranolol, propranolol, reference compound] | –
– | – | – | – | CN1CCN(CCOC(=O)N(c2cccc(Br)c2)c2nc(SCCN3CCOCC3)nc3c2cnn3CC(Cl)c2ccccc2)CC1 (centres unmarked) [SI306-PD1] | greater efficacy than SI306

Reference: PMC12195707, “Evaluation of Antitumoral Activity in a 3D Cell Model of a Src Inhibitor Prodrug for Glioblastoma Treatment” (Pharmaceutics, 2025)
